A short description of the data set: Human HepG2 cell viability assay in 384 well format. In kind it is toxicity, cell-based. More on the design: dose 125 nL, time 70.5 hour; cytotoxicity at 70.5 h: concentration not given beside the values. The conditions noted are these: HepG2 cells, read-out: Inhibition.

As for `CN(C(=O)CSc1ncc[nH]1)c1ccccc1`, the cytotoxicity at 70.5 h is 31.6%.
For `CC(C)CSCCN1CCN(S(C)(=O)=O)CC1` the value was 0.763%; for `Cc1cc(C(=O)NCCc2nc3c(s2)CCCC3)n(C)n1`, -3.4%; for `CN(CC1CCOC1)c1ncc(Br)cn1` (stereo unspecified), -3.89%.
With `CCN(CC)C(=O)CSc1ncc[nH]1` the figure was -8.92%; with `Cc1cc(Br)cnc1N(C)CC1CCOC1` (stereo unspecified), -3.38%.
For `CCOc1nnc(CN(CC)CC(=O)NC(C)C)s1` the value was -1.99%; for `CN1CCN(C)c2cc(NC(=O)c3cc[nH]n3)ccc2C1`, 6.77%.
As for `COc1ccc(C(C)NCc2cscn2)cc1Cn1cccn1` (stereo unspecified), the cytotoxicity at 70.5 h is -7.35%.
With `CC(C)(C)c1nc(CN(Cc2ccccc2F)C2CCCCC2)no1` the figure was -8.5%; with `CC(O)CNC(=O)Nc1ccc(Br)cc1Br` (stereo unspecified), -3.83%.
`NC(=O)c1cccc(CS(=O)(=O)CC(O)Cn2cccn2)c1` (stereo unspecified): the cytotoxicity at 70.5 h is -4.59%.
With `Cc1ccc(S(=O)(=O)Nc2ccc(N3CCSCC3)c(C(=O)O)c2)s1` the figure was -10.2%; with `O=S(=O)(Cc1cccc(Cl)c1)CC(O)Cn1cccn1` (stereo unspecified), -5.5%.
Consider `CC1(C)COCCN1C(=O)c1ccc(Cn2cncn2)cc1`, for which the cytotoxicity at 70.5 h is -9.35%.
With `CC(C)c1nnc(NC(=O)C2CSCN2C(=O)C2CCC2)s1` (stereo unspecified) the figure was -8.18%; with `COc1ccccc1Cc1nnc(SCCS(C)(=O)=O)o1`, -7.42%.
With `Cc1nnc(NC(=O)C2CSCN2C(=O)C2CCCC2)s1` (stereo unspecified) the figure was -3.18%.
For the molecule `C[S+]([O-])CCNC(=O)N1CCSC(C)(C)C1` (stereo unspecified), the cytotoxicity at 70.5 h is -1.1%.
For `CCc1cc2c(N3CCCC(c4cc(C(N)=O)[nH]n4)C3)ncnc2s1` (stereo unspecified) the value was -4.85%; for `O=C(COc1ccccc1Br)N1CCOc2ccncc21`, -3.18%; for `CC(=O)NCCNC(=O)Nc1ccc(Br)cc1C(C)C`, 15.2%.
For `CC(=O)Nc1cc(C(C)(C)C)sc1C#N` the value was -3.4%.
For `Cc1cnn(CC(C)NCc2cccnc2)c1` (stereo unspecified) the value was -5.07%; for `CN1CCOC(CNCC(=O)NCCCc2ccccc2)C1` (stereo unspecified), 4.87%; for `CN(CC(=O)NCC1CCCCC1)S(=O)(=O)c1cccnc1`, -3.39%.
With `Cc1cc(C(=O)NC2CCN(c3nnc(C)c(C)c3C#N)CC2)no1`, the cytotoxicity at 70.5 h is -6.5%.
Take `Cc1nccc(CNC(=O)NCCC(=O)N2CCCc3ccccc32)n1`: the cytotoxicity at 70.5 h is -2.13%.
Regarding `Cc1cc(C(=O)NCCC(=O)N2CCCc3ccccc32)no1`, the cytotoxicity at 70.5 h was -4.18%.
For `COc1cc(CNC(=O)COC2CCCCC2)ccc1O` the value was -4.46%.
Turning to `CCc1ccc(C(=O)N2CCCCC2CNS(C)(=O)=O)o1` (stereo unspecified), the cytotoxicity at 70.5 h is -2.32%.
With `CN1N=C(C(=O)NCCc2ccc(OC3CCCC3)cc2)CCC1=O` the figure was 1.04%; with `Cn1cc(C(=O)NCc2ccc(OC3CCCCC3)nc2)ccc1=O`, -7.34%.
With `COc1ccccc1CN(C)C(=O)C[S+]([O-])Cc1cc(C)on1` (stereo unspecified) the figure was -1.97%; with `Cc1nnc(NC(=O)NCCN(C(=O)OC(C)(C)C)C2CC2)s1`, -4.34%; with `Cn1cc(C(=O)NCCc2ccc(OC3CCCC3)cc2)ccc1=O`, 1.62%.
With `CC1CCN(Cc2ccccc2CNC(=O)C2CNC(=O)N2)CC1` (stereo unspecified) the figure was -4.5%; with `COc1ccc(CN2CC(n3cccn3)C2)cc1F`, -2.24%.
For `COc1ccccc1CCNC(=O)CNCC1CN(C)CCO1` (stereo unspecified), the cytotoxicity at 70.5 h is -3.47%.
For `Cc1cc(CNC(=O)NCCCC(=O)N2CCc3ccccc32)no1` the value was -2.16%.
With `Cc1cc(C(=O)Nc2ccc(OCCN3CCN(C)CC3)cc2)[nH]n1` the figure was 0.21%; with `COc1ccc(CN(C)C(=O)CN2CC(n3cc(C)cn3)C2)cc1F`, -2.77%; with `CN(CCc1ccccn1)C(=O)Cn1cc(-c2ccccc2)nn1`, -3.22%.
With `CC(C)c1nn(C)c(N(C)C)c1CNCc1ccnc(N(C)C)c1` the figure was -0.315%; with `Cc1nsc(N2CCCN(C(=O)CCc3ccsc3)CC2)n1`, -2%; with `COc1ccc(CCC(=O)N2CCN(c3nc(C)ns3)CC2)cc1`, -0.82%.
On to `CCc1noc(CN2CCN(C(=O)OC(C)(C)C)C(C)C2)n1` (stereo unspecified), for which the cytotoxicity at 70.5 h was 2.89%.
Take `CN1CCOC(CNCC(=O)NCCc2ccc(F)cc2)C1` (stereo unspecified): the cytotoxicity at 70.5 h was -3.15%.
As for `CNC(=O)c1cccc(CN2CCC(N(C)Cc3noc(C)n3)C2)c1` (stereo unspecified), the cytotoxicity at 70.5 h was -4.76%.
Turning to `CCc1ccc(C(C)NCc2nccn2Cc2ccccc2)o1` (stereo unspecified), the cytotoxicity at 70.5 h was -9.96%.
In the case of `COCCCn1ccc(NC2CCSCC2)n1`, the cytotoxicity at 70.5 h was -8.74%.
For the molecule `CC(C)(C)C(=O)NCCCc1nc2ccccc2[nH]1`, the cytotoxicity at 70.5 h is -11.6%.
Take `O=C(NCCNc1ncccn1)NCCc1c(F)cccc1F`: the cytotoxicity at 70.5 h was -13.1%.
With `O=C(NCCNc1ncccn1)c1ccc(OCc2ccccc2)nc1` the figure was -13.5%; with `Cc1cc(CNC(=O)Nc2ccc(C(=O)NC3CC3)cc2)no1`, -14.3%; with `COC(=O)CCNC(=O)c1ccc(OCc2ccccc2)nc1`, -6.92%.
Take `Cc1nnc(CSc2n[nH]c(-c3ccccn3)n2)o1`: the cytotoxicity at 70.5 h is -7.45%.
Take `N#CC1COCCN1S(=O)(=O)c1ccc2ccccc2c1` (stereo unspecified): the cytotoxicity at 70.5 h was -1.81%.
With `Cn1ncc2c(=O)[nH]c(N3CCCC3c3cccc(Cl)c3)nc21` (stereo unspecified) the figure was -1.55%; with `CC(C)NC(=O)NC(C)c1ccc(-c2ccncc2)cc1` (stereo unspecified), -7.15%.
For `Cc1cscc1C(=O)Nc1cncnc1N(C)C`, the cytotoxicity at 70.5 h is -7.99%.
On to `N#Cc1cccc(S(=O)(=O)N(CC2CCC2)c2cn[nH]c2)c1`, for which the cytotoxicity at 70.5 h is -8.03%.
For `CCc1nc(CC)n(CC(=O)N(CC)CC)n1` the value was -8.83%; for `CC1CN(C(=O)c2sccc2Br)CCO1` (stereo unspecified), -10.9%.
For `Cc1ccc2c(c1)C(NCc1ccccn1)CC2` (stereo unspecified) the value was -12.6%.
With `CNC(=O)c1cccc(CN2CCC(N(C)Cc3nnc(C)o3)C2)c1` (stereo unspecified) the figure was -6.28%.
Consider `CN(CC(N)=O)Cc1c(Cl)ccc2cccnc12`, for which the cytotoxicity at 70.5 h was -2.22%.
For the molecule `O=C1CCCN1CCCN1CCCC(Cn2cncn2)C1` (stereo unspecified), the cytotoxicity at 70.5 h amounted to 3.37%.
For `O=C1OCCC1N1CCN(c2ccccn2)CC1` (stereo unspecified) the value was -15.5%; for `CN(Cc1ccc(F)c2cccnc12)C1CCS(=O)(=O)C1` (stereo unspecified), -9.82%.
For `Cc1nnc2ccc(N3CCN(Cc4nccn4C)CC3)nn12` the value was 5.33%.
As to `Cc1cc(S(C)(=O)=O)c(C)c(S(=O)(=O)NCC2CCCO2)c1` (stereo unspecified), the cytotoxicity at 70.5 h was -16.8%.
With `O=C1CCCN1CCN1CCCCC1Cn1cccn1` (stereo unspecified) the figure was -10.6%; with `CC(C)c1nn(C)cc1CNCc1cccnc1N(C)C`, 2.18%; with `CC(C)c1nn(C)cc1CNCc1ccnc(N(C)C)c1`, -7.83%.
With `Cc1n[nH]cc1CNCC(O)c1ccc(F)c(F)c1` (stereo unspecified) the figure was -7.55%.

The record behind these values is ChEMBL document CHEMBL3507680, “University of Dundee, Gates Library screen for HepG2 cell viability”.
